In patent US4440784A, “Anti-inflammatory, analgesic, and antipyretic pharmaceutical composition” (Kanegafuchi Chemical Industry Company, Ltd., priority 1981, dated 1984):
Where two headings read alike, the source gives them in different places.

Key:
[1] = test system: carrageenan-induced paw edema in rats; experiment: carrageenan-induced paw edema in rats (acute anti-inflammatory activity); type: in vivo, male Wistar strain rats; conditions: po, rat, p.o., 50 mg/kg
Method: (1) An acute anti-inflammatory activity was evaluated by the method of carrageenan-induced paw edema in rats [C. A. Winter et al., Proc. Soc. […] Six male Wistar strain rats weighing 150~180 g were used in each group. […] The volume of each paw edema was measured 3 and 5 hours after the injection of carrageenan. Percent edema inhibition was calculated by the following equation. [formula]

[2] = test system: paper disk-induced granuloma in rats; experiment: paper disk-induced granuloma in rats (sub-chronic anti-inflammatory activity); type: in vivo, male Wistar strain rats; conditions: rat, p.o. once daily for 7 days
Method: Six male Wistar strain rats weighing 150~180 g were used in each group. Each paper disk (29±1 mg) was implanted s.c. into the bilateral area of the scapula of rats under anesthesia with amobarbital sodium. […] The rats were killed on day 7, at which time the paper disks with surrounding granulomatous tissues were removed and dried to constant weight overnight, and weighed. Percent inhibition was calculated by the following equation. [formula]

[3] = test system: adjuvant-induced arthritis in rats; experiment: adjuvant-induced arthritis in rats (chronic anti-inflammatory activity); type: in vivo, male Sprague-Dawley strain rats; conditions: rat, p.o. once daily
Method: (3) A chronic anti-inflammatory activity was evaluated by the method of adjuvant-induced arthritis in rats [D. T. Walz et al., J. Pharmacol. and Exp. Ther., 178, 223 (1971)]. Eight male Sprague-Dawley strain rats weighing 190~230 g were used in each group. Into the left hind paw of rats was injected i.d. 0.5 mg of Mycobacterium butyricum suspended in 0.05 ml of paraffin oil. Test compounds suspended in 2.5% acacia were administered p.o. once daily for 21 days, starting on the day of the injection of an adjuvant (day 0). Paw volumes of adjuvant-injected and uninjected feet were measured on day 14 and on day 21. Percent inhibition was calculated by the following equation. [formula]

[4] = test system: acetic acid-induced writhing in mice; experiment: acetic acid-induced writhing in mice (analgesic activity); type: in vivo, male ddY strain mice; conditions: po; mouse, p.o., 100 mg/kg, 1 hour before acetic acid i.p.; read-out: Inhibition (writhing)
Method: An analgesic activity was evaluated by the method of acetic acid-induced writhing in mice [R. Koster et al., Federation Proc., 18, 412 (1959)]. Ten male ddY strain mice weighing 20~25 g were used in each group. Test compounds suspended in 2.5% acacia were administered p.o. to the mice. One hour later, the mice were injected i.p. with 0.6% acetic acid in a volume of 0.1 ml/10 g body weight. The number of writhes in each of mice was counted for 20 minutes after the injection of the acetic acid. Percent inhibition was calculated by the following equation. [formula]

[5] = test system: yeast-induced fever in rats; experiment: yeast-induced fever in rats (antipyretic activity); type: in vivo, male Wistar strain rats; conditions: po, rat, p.o., 100 mg/kg
Method: Five male Wistar strain rats weighing 150~180 g were used in each group. A 20% Baker's yeast suspension in 0.9% NaCl was injected s.c. into the dorsal region of rats in a volume of 1 ml/100 g body weight. […] The rectal temperature was determined with a thermometer, 1, 3 and 5 hours after the administration of test compounds. Percent inhibition was calculated by the following equation. [formula]

[6] = toxicity test in mice (LD50); conditions: in vivo, po; mouse, 14 days observation
Method: Female ICR strain mice weighing 20~25 g in groups of six each were used for toxicity tests. Test compounds suspended in 2.5% acacia were administered p.o. to the mice. The animals were observed daily for 14 days after the administration. The LD50 values were estimated from mortality (No. of dead mice/No. of mice used).

[7] = 3 hours after carrageenan, read-out: Percent edema inhibition, 3 hours
[8] = 5 hours after carrageenan, read-out: Percent edema inhibition, 5 hours
[9] = 1 hour after administration, read-out: Inhibition (fever), 1 hour
[10] = 3 hours after administration, read-out: Inhibition (fever), 3 hours
[11] = 5 hours after administration, read-out: Inhibition (fever), 5 hours

| Structure (SMILES) | inhibition in vivo at 50 mg/kg [1, 7] [%] | inhibition in vivo at 50 mg/kg [1, 8] [%] | Inhibition (granuloma) ([2]; 25 mg/kg/day) [%] | Inhibition (granuloma) ([2]; 100 mg/kg/day) [%] | Inhibition, injected foot, Day 14 ([3]; 12.5 mg/kg/day) [%] | Inhibition, injected foot, Day 21 ([3]; 12.5 mg/kg/day) [%] | Inhibition, uninjected foot, Day 14 ([3]; 12.5 mg/kg/day) [%] | Inhibition, uninjected foot, Day 21 ([3]; 12.5 mg/kg/day) [%] | Inhibition, injected foot, Day 14 ([3]; 50 mg/kg/day) [%] | Inhibition, injected foot, Day 21 ([3]; 50 mg/kg/day) [%] | Inhibition, uninjected foot, Day 14 ([3]; 50 mg/kg/day) [%] | Inhibition, uninjected foot, Day 21 ([3]; 50 mg/kg/day) [%] | inhibition in vivo at 100 mg/kg [4] [%] | inhibition in vivo at 100 mg/kg [5, 9] [%] | inhibition in vivo at 100 mg/kg [5, 10] [%] | inhibition in vivo at 100 mg/kg [5, 11] [%] | LD50 at 336 h [6] [mg/kg] |
| --- | --- | --- | --- | --- | --- | --- | --- | --- | --- | --- | --- | --- | --- | --- | --- | --- | --- |
| CC(C)(C)c1cc(C=C(C#N)C(N)=O)cc(C(C)(C)C)c1O [Compound IX, β-Carbamoyl-β-cyano-3,5-di-tert-butyl-4-hydroxystyrene] | 40.8 | 34.2 | 27.0 | 25.0 | 33.3 | 46.1 | 70.3 | 42.6 | 31.6 | 29.6 | 40.5 | 42.6 | 50.7 | 35.4 | 77.3 | 87 | > 1000 |
| CC(=O)C=Cc1cc(C(C)(C)C)c(O)c(C(C)(C)C)c1 [Compound V, β-Acetyl-3,5-di-tert-butyl-4-hydroxystyrene] | 43.2 | 50 | 29.4 | 29.0 | 12.0 | 29.6 | 10.6 | 14.7 | 37.3 | 58.8 | 74.5 | 69.3 | 53.1 | 34.5 | 70.9 | 64.9 | > 1000 |
